Experimental data published in article PMC9917560, “Design, Synthesis and Antimicrobial Evaluation of New N-(1-Hydroxy-1,3-dihydrobenzo[c][1,2]oxaborol-6-yl)(hetero)aryl-2-carboxamides as Potential Inhibitors of Mycobacterial Leucyl-tRNA Synthetase” (International Journal of Molecular Sciences, 2023).
Converted amounts (≈) assume the structure as drawn. Read-outs that look alike come from different tables or passages of the source.

Experiments:
[1] = test system: Mycobacterium tuberculosis H37Ra ITM-M006710 (ATCC 9431); assay: Antimycobacterial microdilution (resazurin) vs Mtb H37Ra; assay type: cell-based
[2] = test system: Mycobacterium tuberculosis H37Rv CNCTC My 331/88 (ATCC 27294); assay: Microplate Alamar Blue assay vs Mtb H37Rv; assay type: cell-based; conditions: Mycobacterium tuberculosis
[3] = test system: Mycobacterium kansasii DSM 44,162 (ATCC 12478); assay: Antimycobacterial microdilution (resazurin) vs M. kansasii; assay type: cell-based; conditions: read-out: MIC M. kansasii
[4] = test system: Mycobacterium avium DSM 44,156 (ATCC 25291); assay: Antimycobacterial microdilution (resazurin) vs M. avium; assay type: cell-based; conditions: Mycobacterium avium, Middlebrook 7H9, resazurin; read-out: MIC M. avium
[5] = test system: Mycolicibacterium aurum DSM 43,999 (ATCC 23366); assay: Antimycobacterial microdilution (resazurin) vs M. aurum; assay type: cell-based; conditions: Middlebrook 7H9, resazurin, read-out: MIC M. aurum
[6] = test system: Mycolicibacterium smegmatis DSM 43,465 (ATCC 607); assay: Antimycobacterial microdilution (resazurin) vs M. smegmatis; assay type: cell-based; conditions: Middlebrook 7H9, resazurin, read-out: MIC M. smeg.
[7] = test system: Staphylococcus aureus subsp. aureus CCM 4223 (ATCC 29213); assay: Antibacterial microdilution broth (EUCAST); assay type: cell-based; conditions: read-out: MIC Staphylococcus aureus subsp. aureus
[8] = test system: methicillin-resistant Staphylococcus aureus subsp. aureus (MRSA) CCM 4750 (ATCC 43300); assay: microbe, parasite or virus in culture; assay type: cell-based; conditions: read-out: MIC Methicillin-resistant Staphylococcus aureus subsp. aureus
[9] = test system: Staphylococcus epidermidis CCM 4418 (ATCC 12228); assay: Antibacterial microdilution broth (EUCAST); assay type: cell-based; conditions: read-out: MIC Staphylococcus epidermidis
[10] = test system: Enterococcus faecalis CCM 4224 (ATCC 29212); assay: Antibacterial microdilution broth (EUCAST); assay type: cell-based; conditions: read-out: MIC Enterococcus faecalis
[11] = test system: Escherichia coli CCM 3954 (ATCC 25922); assay: Antibacterial microdilution broth (EUCAST); assay type: cell-based; conditions: Escherichia coli, read-out: MIC Escherichia coli
[12] = test system: Klebsiella pneumoniae CCM 4415 (ATCC 10031); assay: Antibacterial microdilution broth (EUCAST); assay type: cell-based; conditions: Klebsiella pneumoniae, read-out: MIC Klebsiella pneumoniae
[13] = test system: Acinetobacter baumannii DSM 30007 (ATCC 19606); assay: Antibacterial microdilution broth (EUCAST); assay type: cell-based; conditions: read-out: MIC Acinetobacter baumannii
[14] = test system: Pseudomonas aeruginosa CCM 3955 (ATCC 27853); assay: Antibacterial microdilution broth (EUCAST); assay type: cell-based; conditions: read-out: MIC Pseudomonas aeruginosa
[15] = test system: Candida albicans CCM 8320 (ATCC 24433); assay: Antifungal microdilution broth (EUCAST); assay type: cell-based; conditions: Candida albicans, read-out: MIC Candida albicans
[16] = test system: Candida krusei CCM 8271 (ATCC 6258); assay: Antifungal microdilution broth (EUCAST); assay type: cell-based; conditions: Pichia kudriavzevii, read-out: MIC Candida krusei
[17] = test system: Candida parapsilosis CCM 8260 (ATCC 22019); assay: Antifungal microdilution broth (EUCAST); assay type: cell-based; conditions: Lodderomyces parapsilosis, read-out: MIC Candida parapsilosis
[18] = test system: Candida tropicalis CCM 8264 (ATCC 750); assay: Antifungal microdilution broth (EUCAST); assay type: cell-based; conditions: read-out: MIC Candida tropicalis
[19] = test system: Aspergillus fumigatus ATCC 204305; assay: Antifungal microdilution broth (EUCAST); assay type: cell-based; conditions: Aspergillus fumigatus, ATCC204305, read-out: MIC Aspergillus fumigatus
[20] = test system: Aspergillus flavus CCM 8363; assay: Antifungal microdilution broth (EUCAST); assay type: cell-based; conditions: Aspergillus flavus, CCM8363, read-out: MIC Aspergillus flavus
[21] = test system: Lichtheimia corymbifera CCM 8077; assay: Antifungal microdilution broth (EUCAST); assay type: cell-based; conditions: Lichtheimia corymbifera, CCM8077, read-out: MIC Lichtheimia corymbifera
[22] = test system: Trichophyton interdigitale CCM 8377 (ATCC 9533); assay: Antifungal microdilution broth (EUCAST); assay type: cell-based; conditions: Trichophyton interdigitale, read-out: MIC Trichophyton interdigitale
[23] = test system: HepG2 cell line; assay: Cytotoxicity screening, CellTiter 96 assay; conditions: for IC50: Homo sapiens, HepG2, 24 h, read-out: IC50 HepG2
[24] = Middlebrook 7H9, resazurin, recalculated from µg/mL, read-out: MIC Mtb H37Ra
[25] = pH 6.6, MABA, Middlebrook 7H9 pH 6.6, recalculated from µg/mL, read-out: MIC Mtb H37Rv

O=C(Nc1ccc2c(c1)B(O)OC2)c1nc2ccccc2[nH]c1=O [Compound 18, N-(1-hydroxy-1,3-dihydrobenzo[c][1,2]oxaborol-6-yl)-3-oxo-3,4-dihydroquinoxaline-2-carboxamide] showed an MIC ([1]; read-out: MIC Mtb H37Ra, Middlebrook 7H9, resazurin, recalculated from µg/mL) greater than 1850 µM, an MIC ([2]; pH 6.6, read-out: MIC Mtb H37Rv, MABA, Middlebrook 7H9 pH 6.6, recalculated from µg/mL) greater than 311 µM and an MIC [3] greater than 1850 µM. It also gave an MIC [4] of 48.7 µM (≈ 15.6 µg/mL), an MIC [5] of 24.3 µM (≈ 7.81 µg/mL) and an MIC [6] of 24.3 µM (≈ 7.81 µg/mL). For the same compound, the MIC ([7]; 24h incubation) was greater than 500 µM, the MIC ([7]; 48h incubation) was greater than 500 µM and the MIC ([8]; 24 h) was greater than 500 µM. It also gave an MIC ([8]; 48 h) greater than 500 µM, an MIC ([9]; 24h incubation) greater than 500 µM and an MIC ([9]; 48h incubation) greater than 500 µM. It also gave an MIC ([10]; 24h incubation) greater than 500 µM, an MIC ([10]; 48h incubation) greater than 500 µM and an MIC ([11]; 24h incubation) greater than 500 µM. The MIC ([11]; 48h incubation) was greater than 500 µM, the MIC ([12]; 24h incubation) was greater than 500 µM and the MIC ([12]; 48h incubation) was greater than 500 µM. It also gave an MIC ([13]; 24h incubation) greater than 500 µM, an MIC ([13]; 48h incubation) greater than 500 µM and an MIC ([14]; 24h incubation) greater than 500 µM. The MIC ([14]; 48h incubation) was greater than 500 µM, the MIC ([15]; 24h incubation) was greater than 125 µM and the MIC ([15]; 48h incubation) was greater than 125 µM. The MIC ([16]; 24h incubation) was greater than 125 µM, the MIC ([16]; 48h incubation) was greater than 125 µM and the MIC ([17]; 24h incubation) was greater than 125 µM. The MIC ([17]; 48h incubation) was greater than 125 µM, the MIC ([18]; 24h incubation) was greater than 125 µM and the MIC ([18]; 48h incubation) was greater than 125 µM. The MIC ([19]; 24h incubation) was greater than 125 µM, the MIC ([19]; 48h incubation) was greater than 125 µM and the MIC ([20]; 24h incubation) was greater than 125 µM. It also gave an MIC ([20]; 48h incubation) greater than 125 µM, an MIC ([21]; 24h incubation) greater than 125 µM and an MIC ([21]; 48h incubation) greater than 125 µM. The MIC ([22]; 72h incubation) was greater than 125 µM, the MIC ([22]; 120h incubation) was greater than 125 µM and the melting point was 348.9 to 350.2 °C (dec.). The IC50 [23] was 244 µM.
Cc1cnc(C(=O)Nc2ccc3c(c2)B(O)OC3)cn1 [Compound 2, N-(1-hydroxy-1,3-dihydrobenzo[c][1,2]oxaborol-6-yl)-5-methylpyrazine-2-carboxamide] gave an MIC [1, 24] of 58.1 µM (≈ 15.6 µg/mL), an MIC [2, 25] of 46.5 µM (≈ 12.5 µg/mL) and an MIC [3] of 58.1 µM (≈ 15.6 µg/mL). The MIC [4] was 58.1 µM (≈ 15.6 µg/mL), the MIC [5] was 14.5 µM (≈ 3.91 µg/mL) and the MIC [6] was 29 µM (≈ 7.81 µg/mL). The MIC ([7]; 24h incubation) was 250 µM (≈ 67.3 µg/mL), the MIC ([7]; 48h incubation) was 250 µM (≈ 67.3 µg/mL) and the MIC ([8]; 24 h) was greater than 500 µM. For the same compound, the MIC ([8]; 48 h) was greater than 500 µM, the MIC ([9]; 24h incubation) was 500 µM (≈ 135 µg/mL) and the MIC ([9]; 48h incubation) was 500 µM (≈ 135 µg/mL). For the same compound, the MIC ([10]; 24h incubation) was greater than 500 µM, the MIC ([10]; 48h incubation) was greater than 500 µM and the MIC ([11]; 24h incubation) was greater than 500 µM. For the same compound, the MIC ([11]; 48h incubation) was greater than 500 µM, the MIC ([12]; 24h incubation) was greater than 500 µM and the MIC ([12]; 48h incubation) was greater than 500 µM. It also gave an MIC ([13]; 24h incubation) greater than 500 µM, an MIC ([13]; 48h incubation) greater than 500 µM and an MIC ([14]; 24h incubation) greater than 500 µM. The MIC ([14]; 48h incubation) was greater than 500 µM, the MIC ([15]; 24h incubation) was greater than 500 µM and the MIC ([15]; 48h incubation) was greater than 500 µM. The MIC ([16]; 24h incubation) was greater than 500 µM, the MIC ([16]; 48h incubation) was greater than 500 µM and the MIC ([17]; 24h incubation) was greater than 500 µM. It also gave an MIC ([17]; 48h incubation) greater than 500 µM, an MIC ([18]; 24h incubation) greater than 500 µM and an MIC ([18]; 48h incubation) greater than 500 µM. For the same compound, the MIC ([19]; 24h incubation) was greater than 500 µM, the MIC ([19]; 48h incubation) was greater than 500 µM and the MIC ([20]; 24h incubation) was greater than 500 µM. For the same compound, the MIC ([20]; 48h incubation) was greater than 500 µM, the MIC ([21]; 24h incubation) was greater than 500 µM and the MIC ([21]; 48h incubation) was greater than 500 µM. For the same compound, the MIC ([22]; 72h incubation) was greater than 500 µM, the MIC ([22]; 120h incubation) was greater than 500 µM and the melting point was 215 to 216.1 °C. The IC50 [23] was greater than 500 µM and the “toxicity to HepG2 up to highest tested concentration” value ([23]; tested up to 500 µM (2, 3), 250 µM (12, 17), 100 µM (6, 7, 11) because of solubility) was “non-toxic”.
For O=C(Nc1ccc2c(c1)B(O)OC2)c1ccc(Cl)cc1 [Compound 14, 4-chloro-N-(1-hydroxy-1,3-dihydrobenzo[c][1,2]oxaborol-6-yl)benzamide], the MIC [1, 24] was 435 µM (≈ 125 µg/mL), the MIC [2, 25] was 43.5 µM (≈ 12.5 µg/mL) and the MIC ([3]; Middlebrook 7H9, resazurin) was 217 µM (≈ 62.5 µg/mL). For the same compound, the MIC [4] was 435 µM (≈ 125 µg/mL), the MIC [5] was 13.6 µM (≈ 3.91 µg/mL) and the MIC [6] was 217 µM (≈ 62.5 µg/mL). It also gave an MIC ([7]; 24h incubation) greater than 500 µM, an MIC ([7]; 48h incubation) greater than 500 µM and an MIC ([8]; 24 h) greater than 500 µM. It also gave an MIC ([8]; 48 h) greater than 500 µM, an MIC ([9]; 24h incubation) greater than 500 µM and an MIC ([9]; 48h incubation) greater than 500 µM. It also gave an MIC ([10]; 24h incubation) greater than 500 µM, an MIC ([10]; 48h incubation) greater than 500 µM and an MIC ([11]; 24h incubation) greater than 500 µM. It also gave an MIC ([11]; 48h incubation) greater than 500 µM, an MIC ([12]; 24h incubation) greater than 500 µM and an MIC ([12]; 48h incubation) greater than 500 µM. For the same compound, the MIC ([13]; 24h incubation) was greater than 500 µM, the MIC ([13]; 48h incubation) was greater than 500 µM and the MIC ([14]; 24h incubation) was greater than 500 µM. The MIC ([14]; 48h incubation) was greater than 500 µM, the MIC ([15]; 24h incubation) was greater than 125 µM and the MIC ([15]; 48h incubation) was greater than 125 µM. It also gave an MIC ([16]; 24h incubation) greater than 125 µM, an MIC ([16]; 48h incubation) greater than 125 µM and an MIC ([17]; 24h incubation) greater than 125 µM. The MIC ([17]; 48h incubation) was greater than 125 µM, the MIC ([18]; 24h incubation) was greater than 125 µM and the MIC ([18]; 48h incubation) was greater than 125 µM. The MIC ([19]; 24h incubation) was greater than 125 µM, the MIC ([19]; 48h incubation) was greater than 125 µM and the MIC ([20]; 24h incubation) was greater than 125 µM. It also gave an MIC ([20]; 48h incubation) greater than 125 µM, an MIC ([21]; 24h incubation) greater than 125 µM and an MIC ([21]; 48h incubation) greater than 125 µM. For the same compound, the MIC ([22]; 72h incubation) was greater than 125 µM, the MIC ([22]; 120h incubation) was greater than 125 µM and the melting point was 225.5 to 228.1 °C. The IC50 [23] was greater than 1000 µM.
